Laboratory results published in article PMC12520456, “Regulating Enzyme Activity via Microaggregates Mediated by Phase Separation” (Advanced Science, 2025).
Non-standard residues stand in square brackets, D forms with d. Residues, ends and D or L forms follow the SMILES beside them.

What was measured:
Ca-binding assay = settings: peptide 0.625-30 mg/mL with 3 μg/mL Ca2+, 20 mM sodium phosphate buffer pH 7.4, 37 °C 30 min; supernatant calcium by kit; four independent repeats; Figure S1C
Excerpt: circular dichroism spectrum and molar ellipticity (kdeg·cm2/mol) on the y-axis.
3.3 Peptide Synthesis and DPMD Preparation
All peptides were synthetized according to the optimized HBTU activation/DIEA in situ neutralization protocol developed by […] on the CS bio 336X automated peptide synthesizer. Briefly, after cleavage and deprotection in a reagent cocktail containing 88% TFA, 5% phenol, 5% H2O and 2% TIPS, crude products were precipitated with cold ether and purified to homogeneity by preparative C18 reversed-phase HPLC. The molecular masses were ascertained by electrospray ionization mass spectrometry (ESI-MS). […]
0.22μm filter to remove residue. The calcium content of the supernatant was measured using the Calcium ion detection kit (Beyotime) according to the recommended method. […]
Peptide and enzyme solutions were prepared at varying concentrations and mixed at a 1:1 volume ratio. Solution turbidity was quantitatively assessed by monitoring absorbance at 405 nm using a BioTek spectrophotometer. For fluorescence-based characterization, peptides were labeled with FITC while enzymes were labeled with Cy5. […] For fluorescence recovery after photobleaching (FRAP) analysis, enzyme-aggregated patches were selectively bleached at 60% laser power using 488/640 nm lasers for 10 s, followed by time-lapse imaging at 1-min intervals. […]

[1] = test system: postoperative pancreatic fistula (POPF); assay: Rat pancreatic splenic duct transection (non-lethal) POPF model; assay type: in vivo
Method: To investigate the biofunction of DPMD in preventing POPF, a slowly occurring POPF model was established in rats by transecting the peripancreatic splenic duct to induce a continuous but low leakage of pancreatic juice (Figure 3A). Following surgical modeling, DPMD, its L‐enantiomer LPMD, or normal saline (Ctrl) were topically applied on the incision site. After post operation, chymotrypsin leakage was assessed using a specific fluorescent dye. […] By monitoring ascitic and serum amylase and lipase levels over a span of 7 days following surgical modeling (Figure 3C), we were able to make inferences about the pathological score (Figure 3D) and the occurrence of POPF (Figure 3E). The noteworthy observation is that all the mock‐treated rats experienced POPF on day 3 following surgical modeling, and this phenomenon persisted until day 5 (Figure 3E). In contrast, LPMD reduced both the occurrence and severity of POPF, resulting in 33% of rats being healthy and only 67% experiencing minor POPF on day 3; furthermore, all rats fully recovered by day 5 (Figure 3E). […] Furthermore, both DPMD and LPMD treatments decreased inflammation markers including TNF‐α, IL‐6, IL‐8, IL‐33, sST2, CRP, HMGB1, MPO, PAF, PCT, PGE2, and SAA in rats’ serum (Figure 3G). […]
was performed using an Annexin V-Alexa Fluor 647/PI kit (Solarbio) according to the manufacturer’ s protocol. Briefly, adherent cells were detached with 0.25% EDTA-free trypsin, combined with floating cells from the supernatant. The pellet was washed twice with cold PBS and resuspended in 100 μL of 1× binding buffer. After adding Annexin V-647 and PI, cells were incubated for 15 min in the dark at room temperature. Samples were analyzed within 1h on a Sony MA900 flow cytometer.
3.12 Animal fluorescence imaging
Rats were intraperitoneally injected with 1 mL of rhodamine-labeled 0.5% (w/v) DPMD. […] The fluorescence emission intensity of the organs was measured using IVIS Spectrum system (PerkinElmer). […]

## CC[C@@H](C)[C@@H](NC(=O)[C@@H](CCC(N)=O)NC(=O)[C@H](NC(=O)[C@@H](Cc1ccc(O)cc1)NC(=O)CNC(=O)[C@@H](CC(C)C)NC(=O)[C@H](NC(=O)[C@@H](CO)NC(=O)CNC(=O)[C@@H](C)NC(=O)[C@@H](CC(=O)O)NC(=O)[C@@H](C)NC(=O)[C@@H](CCCNC(=N)N)NC(=O)[C@@H](C)NC(=O)[C@@H](CC(=O)O)NC(=O)[C@@H](C)NC(=O)[C@@H](CCCNC(=N)N)NC(=O)[C@@H](C)NC(=O)[C@@H](CC(=O)O)NC(=O)[C@@H](C)NC(=O)[C@@H](CCCNC(=N)N)NC(=O)[C@@H](C)NC(=O)[C@@H](CC(=O)O)NC(=O)[C@@H](C)NC(=O)[C@H](N)CCCNC(=N)N)C(C)C)[C@H](C)CC)C(=O)N[C@H](CCCNC(=N)N)C(=O)O [DPMD, Ac‐(D‐RADA)4‐CONH2] (H-[dR][dA][dD][dA][dR][dA][dD][dA][dR][dA][dD][dA][dR][dA][dD][dA]G[dS][dV][dL]G[dY][dI][dQ][dI][dR]-OH; N-terminus and C-terminus assumed)
Ca-binding assay
  Ca^2+ binding capacity: clear binding affinity
[1]; Figure S10
  H&E staining of pancreatic tissue: reduced edema and inflammatory cell infiltration
[1]; topical application at incision site, Figure 3B
  chymotrypsin leakage by fluorescent dye imaging: nearly complete suppression of leakage
[1]; within 7 days after surgery, Figure 3G
  serum inflammation markers (TNF-α, IL-6, IL-8, IL-33, sST2, CRP, HMGB1, MPO, PAF, PCT, PGE2, SAA): decreased
